Experimental data: patent publication US20060003907A1, “Detergent composition with benefit agents” (Unilever Home & Personal Care USA, Division of Conopco, Inc., priority 2003, published 2006)

Experiments:
[1] = pH and turbidity of 1% soap solution after adding ACH directly or through water-in-oil emulsion; format: physicochemical; conditions: 60 mg ACH directly added to 1% soap solution (Control)
Description: A 1% soap solution was prepared by dissolving the soap in distilled water at 70° C., and then cooling the solution to ambient temperature. The formulation of the soap used is given below: […]
To ascertain the stability of the ACH incorporated in the dispersed phase such as the water-in-oil emulsion in accordance with the invention prepared under Example 2b, the soap solution obtained under Example 2a was used, and the effect of direct addition of ACH and the ACH in the water-in-oil emulsion (Example 2b) of the invention was studied.
For the purpose of the above study, two separate batches of the same soap solution of Example 2a was taken. In one batch 60 mg ACH was directly added, and in the other batch 100 mg ACH was added through the water-in-oil emulsion system as per Example 2b above. The pH levels and the turbidity of the respective solutions containing the active ACH directly introduced (Control) and the active ACH in the water-in-oil emulsion (Example 2b) were measured, and the results are reproduced hereunder in Table II.

[2] = Turbidity of 1% ACH solution at varying alkalinity (nephelometric turbidimeter); format: physicochemical; conditions: 1% solution of ACH
Description: A 1% solution of ACH having initial pH of 4.6 was subjected to varying alkalinity by using sodium hydroxide solution, and the turbidity of the solution was measured at varying pH levels using a nephelometric turbidimeter.

Aluminum Chlorohydrate [ACH]
pH ([1]; soap solution alone 10.14): 9.89
Turbidity ([1]; soap solution alone 205): 950
Turbidity ([2]; pH 4.6 (initial pH)): 1.3 NTU
Turbidity ([2]; pH 5.7 (sodium hydroxide)): 2.6 NTU
Turbidity ([2]; pH 7.5 (sodium hydroxide)): 504 NTU
Turbidity ([2]; pH 9.6 (sodium hydroxide)): 522 NTU
Turbidity ([2]; pH 10.6 (sodium hydroxide)): 884 NTU
